{"source": "patent US9920100B2", "about": "“Mimotopes of tropomyosin for use in immunotherapy for shellfish and/or arthropod allergy” (THE REGENTS OF THE UNIVERSITY OF CALIFORNIA, priority 2016, dated 2018)", "test_system": "Met e 1", "assay": "ELISA of Met e 1-specific IgG1 and IgG2a in serum of BALB/c mice immunized with mimotope-KLH conjugates", "assay_type": "in vivo, Metapenaeus ensis", "settings": "KLH conjugate in BALB/c mice; compared with the Met e 1 epitope (a.a. 251-270) positive control", "procedure": "One mimotope peptide was chosen from each of clusters 1-6 (Table 3) and commercially synthesized (Genscript). The mimotopes were conjugated to keyhole limpet hemocyanin (KLH) using Imject EDC mcKLH Spin Kit (Thermo Scientific) according to manufacturer's instructions. Female BALB/c mice (n=4; 5-6 weeks) were immunized subcutaneously with a mimotope conjugate (50 μg in 200 μl PBS) emulsified in Complete Freund's adjuvant on day 0 and Incomplete Freund's adjuvant on days 14 and 21. Blood samples were collected on day 28 from tail vein of the mice. A Der p 1 mimotope (KGIPNTKAP) (Szalai et al., Mot Immunol, 2008; 45, 1308-1317) and an IgE epitope of Met e 1 ([…]; a.a. 251-270) were also included as negative and positive controls, respectively. All animal protocols were approved by the Animal Experimentation Ethics Committee, CUHK, in accordance with the Department of Health (Government of Hong Kong Special Administrative Region, HKSAR) guidelines in Care and Use of Animals. All experiments were performed under licenses granted from the HKSAR Government.\nELISA was performed as previously described (Wai et al., PLoS One, 2014; 9, e111649) to detect Met e 1-specific IgG antibodies. […] 100 μl of 0.1M sulfuric acid was added to each well to stop the reaction after 10 min of incubation and the optical density at 450 nm was determined using microplate reader (BioRad Model 680). […]", "data": [{"sequence": "GTKLQHFRQ (Synthetic Cluster 4 mimotope) [Cluster 4 mimotope of Met e 1; selected for in vivo verification]", "values": [{"measurement": "capacity to induce Met e 1-specific antibodies", "value": "lower capacity"}]}]}
